Experimental data: PubChem BioAssay (NCI)
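Results reflect a 48-hour exposure of cells in 96-well plates to compound at five concentrations. TGI denotes the concentration required for complete inhibition of growth.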

How the values were obtained:
Test in all cases: growth of human tumour cells (NCI), 48 h
SK-OV-3 ovarian = tested on: SK-OV-3 ovarian
A498 renal = tested on: A498 renal
UO-31 renal = tested on: UO-31 renal
HL-60(TB) leukemia = tested on: HL-60(TB) leukemia
HT29 colon = tested on: HT29 colon
COLO 205 colon = tested on: COLO 205 colon
CCRF-CEM leukemia = tested on: CCRF-CEM leukemia
SNB-75 CNS = tested on: SNB-75 CNS
PC-3 prostate = tested on: PC-3 prostate
MDA-N = tested on: MDA-N
KM12 colon = tested on: KM12 colon
T-47D breast = tested on: T-47D breast
LOX IMVI melanoma = tested on: LOX IMVI melanoma
UACC-257 melanoma = tested on: UACC-257 melanoma
NCI-H226 lung = tested on: NCI-H226 lung

Compound	TGI (SK-OV-3 ovarian)	TGI (A498 renal)	TGI (UO-31 renal)	TGI (HL-60(TB) leukemia)	TGI (HT29 colon)	TGI (COLO 205 colon)	TGI (CCRF-CEM leukemia)	TGI (SNB-75 CNS)	TGI (PC-3 prostate)	TGI (MDA-N)	TGI (KM12 colon)	TGI (T-47D breast)	TGI (LOX IMVI melanoma)	TGI (UACC-257 melanoma)	TGI (NCI-H226 lung)
COc1cc2cc(C(=O)N3CC(CCl)c4ccc(NO)cc43)[nH]c2c(OC)c1OC (configuration not stated)	3.01 µM	> 100 µM	0.392 µM	0.403 µM	11.8 µM	2.04 µM	1.16 µM	0.47 µM	2.05 µM	0.727 µM	16.3 µM	> 42.6 µM	2.56 µM		
CC(C)CC(N)C(=O)NC(CNC(CCC(N)=O)C(=O)NC(CC(C)C)C(=O)NC(CC(C)C)C(=O)O)Cc1ccc2ccccc2c1 (configuration not stated)	> 10 µM	> 10 µM	> 10 µM	> 10 µM	> 10 µM	> 10 µM	> 10 µM	> 10 µM	> 10 µM	> 10 µM	> 10 µM		> 10 µM	> 10 µM	> 10 µM
CC1CC(C)(O)C2C3(C)CCCC2(COC3=O)C12CCC1(CCOC1=O)O2 (configuration not stated)	> 250 µM	248 µM	> 250 µM	> 250 µM	> 250 µM	> 250 µM	> 250 µM	> 250 µM			> 250 µM		> 250 µM	> 250 µM	> 250 µM
O=C(O)C1=C(CO)Oc2cc3c(cc2C1c1ccc2c(c1)OCO2)OCO3 (configuration not stated)	> 100 µM		> 100 µM	> 100 µM	> 100 µM	> 100 µM	> 100 µM	> 100 µM					> 100 µM	> 100 µM	
Nc1[nH]c(=O)nc2c1cnn2COCCO		> 100 µM	> 100 µM	> 100 µM	> 100 µM	> 100 µM	> 100 µM	> 100 µM			> 100 µM		> 100 µM	> 100 µM	6.36 µM
O=P1(Oc2ccc(Cl)cc2Cl)Oc2cc3ccccc3cc2O1	> 100 µM	> 90.5 µM	> 100 µM	50.8 µM	> 100 µM	> 100 µM	> 100 µM	> 100 µM			> 100 µM		> 100 µM	> 100 µM	> 100 µM
CN(C)CCC(=O)[C@@]1(O)CC[C@H]2[C@@H]3CC=C4C[C@@H](O)CC[C@]4(C)[C@H]3CC[C@@]21C	> 66.8 µM	29.7 µM	31.7 µM	37.7 µM	37.5 µM	32.9 µM	> 55.7 µM	29.5 µM	26.2 µM	34.5 µM	45.3 µM	23.5 µM	28.7 µM	26.1 µM	> 100 µM
Nc1c(S(=O)(=O)O)cc(S(=O)(=O)O)c2ccc(N=Nc3ccccc3)c(O)c12	> 100 µM	> 100 µM	> 100 µM	> 100 µM	> 100 µM	> 100 µM	> 100 µM	> 100 µM	> 100 µM	> 100 µM	> 100 µM	> 100 µM	> 100 µM	> 100 µM	> 100 µM
CCn1c2ccccc2c2ccc(C3C4C(=O)N(c5cccc6ccccc56)C(=O)C4ON3C(C(N)=O)c3ccccc3)cc21 (configuration not stated)	> 25 µM	6.96 µM	> 25 µM	> 25 µM	> 25 µM	> 25 µM		> 25 µM	> 25 µM	> 25 µM	> 25 µM	> 25 µM	> 25 µM	> 25 µM	8.05 µM
COC(=O)[C@]12CC[C@H]3CN(S(=O)(=O)c4ccc(C)cc4)[C@H]([C@H]31)[C@H](c1ccco1)N2S(=O)(=O)c1ccc(C)cc1	> 100 µM	> 100 µM	> 100 µM	91.5 µM	> 100 µM	45.3 µM	> 100 µM		> 100 µM	73.7 µM	> 100 µM	49.5 µM	> 100 µM	81.1 µM	> 100 µM
Cc1nn(CNc2ccc(F)c(Cl)c2)c(=S)n1/N=C/c1ccc(-c2ccc(Cl)cc2Cl)o1	33.2 µM	30.3 µM	32.2 µM	16.9 µM	41.4 µM		18.5 µM		30.9 µM	33.5 µM	55.7 µM	58.8 µM	44.9 µM	46.9 µM	46.8 µM
CC(C)N(CC(=O)O)CC(=O)O	> 100 µM	> 100 µM	> 100 µM	> 100 µM	> 100 µM	> 100 µM	> 100 µM	> 100 µM	> 100 µM	> 100 µM	> 100 µM	> 100 µM	> 100 µM	> 100 µM	> 100 µM
